From patent US20220288069A1, “INHIBITORS OF TYROSINE KINASE” (BridGene Biosciences, Inc., priority 2019, published 2022)

Key:
THP−1 = assay: Cell viability assay (CellTiter-Glo), THP-1; format: cell-based; conditions: Homo sapiens, THP-1 cells, 72 hr
Protocol: (§1) Cell viability assay was performed based on the following brief procedures. Cells were plated at the density of 5K/well with volume of […] in 96-well white plate and clear bottom plates. 20 μL of veh. or compound was added at proper concentration to the well. The final volume is 200 μL, with final conc. of DMSO32 0.1%, 11 points, triplicates. The cells were then treated at 37° C. in the TC incubator for 72 hr. Equal volume (200 μL) of CellTiter-Glo reagent (Promega) was added to the well and protect from light at room temperature for 15 min. The chemiluminicent was measured with EnSight (Perkin Elmer). GraphPad Prism non-linear regression, Log[inhibitor] response with four parameters were used to calculate GI50.

FMS = molecular target: T1, FMS (Homo sapiens, UniProt P07333); assay: Caliper mobility shift kinase inhibition assay, FMS; format: biochemical; conditions: recombinant kinase; enzyme 0.25 nM, ATP 100 μM, incubation 3 hr
T1 construct: purchased Invitrogen PV3249
Protocol: (§2) Compounds' inhibition of recombinant kinases (FGR, FLT3, FMS, KIT, or RON) was measured using Caliper mobility shift assay, which is based on the difference in capillary electrophoresis mobility of a fluorescent-tagged peptide as a result of a phosphorylation by the kinase under study. Reactions were started by the addition of various concentrations of a compound (originally in DMSO solution) to a kinase solution in assay buffer followed by addition of a mixture of ATP and a fluorescent-tagged peptide substrate in assay buffer. Concentrations of the enzyme, ATP and the peptide were pre-optimized so that 15% substrate conversion to ensure initial velocity measurements. After incubation for 3 hours at room temperature, the kinase reaction was quenched by the addition of a concentrated EDTA solution before analysis on a LabChip EZ Reader II to yield percentage inhibition by comparing to the DMSO control.
(§3) Table 2 below summarizes the assay conditions for the characterization of the kinase inhibition properties of the disclosed compounds.

RON = molecular target: T2, RON (Homo sapiens, UniProt Q04912); assay: Caliper mobility shift kinase inhibition assay, RON; format: biochemical; conditions: recombinant kinase; enzyme 0.4 nM, ATP 20 μM, incubation 3 hr
T2 construct: purchased Invitrogen PV4314
Protocol: as §2, §3

Kasumi−1 = assay: Cell viability assay (CellTiter-Glo), Kasumi-1; format: cell-based; conditions: Homo sapiens, Kasumi-1 cells, 72 hr
Protocol: as §1

KIT = molecular target: T3, KIT (Homo sapiens, UniProt P10721); assay: Caliper mobility shift kinase inhibition assay, KIT; format: biochemical; conditions: recombinant kinase; enzyme 0.9 nM, ATP 400 μM, incubation 17 hr
T3 construct: purchased BPS 40250
Protocol: as §2, with “After incubation for 3 hours at room temperature, the kinase reaction was quenched by the addition of a concentrated EDTA solution before analysis on a LabChip EZ Reader II to yield percentage inhibition by comparing to the DMSO control.” left out
as §3

FGR = molecular target: T4, FGR (Homo sapiens, UniProt P09769); assay: Caliper mobility shift kinase inhibition assay, FGR; format: biochemical; conditions: recombinant kinase; enzyme 0.3 nM, ATP 50 μM, incubation 3 hr
T4 construct: purchased BPS 4022
Protocol: as §2, §3

MV4−11 = assay: Cell viability assay (CellTiter-Glo), MV4-11; format: cell-based; conditions: Homo sapiens, MV4-11 cells, 72 hr
Protocol: as §1

FLT3 = molecular target: T5, FLT3 (Homo sapiens, UniProt P36888); assay: Caliper mobility shift kinase inhibition assay, FLT3; format: biochemical; conditions: recombinant kinase; enzyme 0.1 nM, ATP 95 μM, incubation 3 hr
T5 construct: purchased ThermoFisher PV3182
T5 sequence (P36888 27-993): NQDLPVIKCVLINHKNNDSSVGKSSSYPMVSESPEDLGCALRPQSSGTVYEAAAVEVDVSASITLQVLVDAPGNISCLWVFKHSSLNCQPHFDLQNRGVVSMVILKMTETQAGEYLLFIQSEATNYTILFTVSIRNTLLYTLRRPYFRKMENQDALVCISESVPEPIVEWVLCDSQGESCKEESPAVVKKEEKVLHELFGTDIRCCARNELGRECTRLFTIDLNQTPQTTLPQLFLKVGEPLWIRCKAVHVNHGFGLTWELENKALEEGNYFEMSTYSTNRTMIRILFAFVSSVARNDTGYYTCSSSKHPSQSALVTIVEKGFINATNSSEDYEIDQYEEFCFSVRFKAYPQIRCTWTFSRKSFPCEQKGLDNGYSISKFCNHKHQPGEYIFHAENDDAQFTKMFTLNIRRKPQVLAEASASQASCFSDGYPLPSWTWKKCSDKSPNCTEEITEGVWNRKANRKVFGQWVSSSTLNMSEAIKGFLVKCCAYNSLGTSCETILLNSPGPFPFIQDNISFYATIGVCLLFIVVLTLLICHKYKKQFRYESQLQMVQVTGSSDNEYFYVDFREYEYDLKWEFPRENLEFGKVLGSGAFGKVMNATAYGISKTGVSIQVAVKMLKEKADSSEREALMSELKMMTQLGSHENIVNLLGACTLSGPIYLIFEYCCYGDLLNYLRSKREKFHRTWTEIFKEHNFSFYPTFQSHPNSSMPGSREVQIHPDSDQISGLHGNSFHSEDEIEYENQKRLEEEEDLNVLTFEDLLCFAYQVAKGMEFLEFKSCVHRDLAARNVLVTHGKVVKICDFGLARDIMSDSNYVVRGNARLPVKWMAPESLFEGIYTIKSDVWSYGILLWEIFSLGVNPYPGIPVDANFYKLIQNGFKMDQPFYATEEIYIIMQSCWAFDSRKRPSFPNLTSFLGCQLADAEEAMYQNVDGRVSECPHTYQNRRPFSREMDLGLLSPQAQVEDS
Protocol: as §2, §3

T3 sequence (P10721 26-976): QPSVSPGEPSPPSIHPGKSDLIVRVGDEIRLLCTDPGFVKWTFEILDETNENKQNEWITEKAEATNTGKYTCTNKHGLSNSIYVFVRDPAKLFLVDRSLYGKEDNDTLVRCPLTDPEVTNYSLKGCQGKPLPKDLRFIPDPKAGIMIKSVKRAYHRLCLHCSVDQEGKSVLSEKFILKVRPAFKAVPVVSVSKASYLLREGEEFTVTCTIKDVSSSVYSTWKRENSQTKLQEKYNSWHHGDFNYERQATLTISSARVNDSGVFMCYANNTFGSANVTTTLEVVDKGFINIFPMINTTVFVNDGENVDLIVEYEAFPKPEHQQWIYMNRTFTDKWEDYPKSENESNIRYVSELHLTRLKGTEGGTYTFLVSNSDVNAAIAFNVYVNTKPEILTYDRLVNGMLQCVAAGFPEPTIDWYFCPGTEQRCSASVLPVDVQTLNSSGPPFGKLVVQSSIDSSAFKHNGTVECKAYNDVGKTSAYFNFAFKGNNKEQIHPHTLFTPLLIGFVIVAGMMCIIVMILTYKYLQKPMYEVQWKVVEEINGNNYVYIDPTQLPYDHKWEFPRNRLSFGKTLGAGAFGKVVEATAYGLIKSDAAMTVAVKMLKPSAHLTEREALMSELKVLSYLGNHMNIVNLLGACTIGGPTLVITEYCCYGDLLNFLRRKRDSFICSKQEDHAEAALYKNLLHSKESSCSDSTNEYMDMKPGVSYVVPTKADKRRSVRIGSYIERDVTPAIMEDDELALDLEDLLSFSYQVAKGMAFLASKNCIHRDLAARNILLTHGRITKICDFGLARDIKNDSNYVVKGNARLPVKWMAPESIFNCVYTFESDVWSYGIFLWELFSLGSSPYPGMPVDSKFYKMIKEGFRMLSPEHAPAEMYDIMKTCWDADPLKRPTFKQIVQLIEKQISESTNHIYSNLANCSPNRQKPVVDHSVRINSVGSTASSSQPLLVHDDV
T4 sequence (P09769 whole entry): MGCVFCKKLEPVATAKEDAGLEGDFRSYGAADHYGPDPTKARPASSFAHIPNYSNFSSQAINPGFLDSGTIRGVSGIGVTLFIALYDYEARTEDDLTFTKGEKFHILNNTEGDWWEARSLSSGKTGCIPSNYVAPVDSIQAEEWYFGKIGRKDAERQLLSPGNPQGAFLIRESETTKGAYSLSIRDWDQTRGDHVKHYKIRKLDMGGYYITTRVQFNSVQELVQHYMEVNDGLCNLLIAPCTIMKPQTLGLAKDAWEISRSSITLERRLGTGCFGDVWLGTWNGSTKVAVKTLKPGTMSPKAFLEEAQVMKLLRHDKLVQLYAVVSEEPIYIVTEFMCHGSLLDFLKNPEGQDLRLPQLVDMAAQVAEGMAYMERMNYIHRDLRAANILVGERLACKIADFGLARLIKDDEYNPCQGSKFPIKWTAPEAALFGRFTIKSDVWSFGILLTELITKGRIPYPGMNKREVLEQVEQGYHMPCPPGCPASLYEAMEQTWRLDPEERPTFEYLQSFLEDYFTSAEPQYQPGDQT
T1 sequence (P07333 20-972): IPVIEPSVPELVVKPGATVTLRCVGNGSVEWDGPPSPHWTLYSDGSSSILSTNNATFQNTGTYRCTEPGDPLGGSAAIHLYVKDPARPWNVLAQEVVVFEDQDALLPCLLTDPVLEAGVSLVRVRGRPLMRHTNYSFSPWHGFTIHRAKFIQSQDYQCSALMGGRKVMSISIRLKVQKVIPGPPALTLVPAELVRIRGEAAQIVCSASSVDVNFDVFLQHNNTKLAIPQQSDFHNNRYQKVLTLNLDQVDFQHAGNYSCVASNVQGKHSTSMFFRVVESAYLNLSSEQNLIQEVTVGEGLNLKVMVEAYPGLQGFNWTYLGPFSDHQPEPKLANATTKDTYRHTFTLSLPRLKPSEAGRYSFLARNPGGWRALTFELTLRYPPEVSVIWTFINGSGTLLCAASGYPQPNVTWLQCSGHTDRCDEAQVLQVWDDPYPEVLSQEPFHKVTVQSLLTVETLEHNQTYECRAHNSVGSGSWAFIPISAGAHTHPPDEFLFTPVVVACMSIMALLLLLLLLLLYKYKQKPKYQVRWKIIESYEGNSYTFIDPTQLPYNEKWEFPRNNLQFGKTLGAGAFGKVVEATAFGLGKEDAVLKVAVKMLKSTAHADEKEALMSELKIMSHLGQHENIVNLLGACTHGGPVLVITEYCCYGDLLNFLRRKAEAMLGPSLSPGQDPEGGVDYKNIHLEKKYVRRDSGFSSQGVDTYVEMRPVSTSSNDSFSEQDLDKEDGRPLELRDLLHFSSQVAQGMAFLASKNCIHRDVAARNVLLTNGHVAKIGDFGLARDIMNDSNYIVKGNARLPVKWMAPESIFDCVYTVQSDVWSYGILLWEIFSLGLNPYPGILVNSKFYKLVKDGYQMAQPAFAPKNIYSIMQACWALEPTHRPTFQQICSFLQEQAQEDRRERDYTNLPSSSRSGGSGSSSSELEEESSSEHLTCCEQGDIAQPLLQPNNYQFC
T2 sequence (Q04912 25-1400): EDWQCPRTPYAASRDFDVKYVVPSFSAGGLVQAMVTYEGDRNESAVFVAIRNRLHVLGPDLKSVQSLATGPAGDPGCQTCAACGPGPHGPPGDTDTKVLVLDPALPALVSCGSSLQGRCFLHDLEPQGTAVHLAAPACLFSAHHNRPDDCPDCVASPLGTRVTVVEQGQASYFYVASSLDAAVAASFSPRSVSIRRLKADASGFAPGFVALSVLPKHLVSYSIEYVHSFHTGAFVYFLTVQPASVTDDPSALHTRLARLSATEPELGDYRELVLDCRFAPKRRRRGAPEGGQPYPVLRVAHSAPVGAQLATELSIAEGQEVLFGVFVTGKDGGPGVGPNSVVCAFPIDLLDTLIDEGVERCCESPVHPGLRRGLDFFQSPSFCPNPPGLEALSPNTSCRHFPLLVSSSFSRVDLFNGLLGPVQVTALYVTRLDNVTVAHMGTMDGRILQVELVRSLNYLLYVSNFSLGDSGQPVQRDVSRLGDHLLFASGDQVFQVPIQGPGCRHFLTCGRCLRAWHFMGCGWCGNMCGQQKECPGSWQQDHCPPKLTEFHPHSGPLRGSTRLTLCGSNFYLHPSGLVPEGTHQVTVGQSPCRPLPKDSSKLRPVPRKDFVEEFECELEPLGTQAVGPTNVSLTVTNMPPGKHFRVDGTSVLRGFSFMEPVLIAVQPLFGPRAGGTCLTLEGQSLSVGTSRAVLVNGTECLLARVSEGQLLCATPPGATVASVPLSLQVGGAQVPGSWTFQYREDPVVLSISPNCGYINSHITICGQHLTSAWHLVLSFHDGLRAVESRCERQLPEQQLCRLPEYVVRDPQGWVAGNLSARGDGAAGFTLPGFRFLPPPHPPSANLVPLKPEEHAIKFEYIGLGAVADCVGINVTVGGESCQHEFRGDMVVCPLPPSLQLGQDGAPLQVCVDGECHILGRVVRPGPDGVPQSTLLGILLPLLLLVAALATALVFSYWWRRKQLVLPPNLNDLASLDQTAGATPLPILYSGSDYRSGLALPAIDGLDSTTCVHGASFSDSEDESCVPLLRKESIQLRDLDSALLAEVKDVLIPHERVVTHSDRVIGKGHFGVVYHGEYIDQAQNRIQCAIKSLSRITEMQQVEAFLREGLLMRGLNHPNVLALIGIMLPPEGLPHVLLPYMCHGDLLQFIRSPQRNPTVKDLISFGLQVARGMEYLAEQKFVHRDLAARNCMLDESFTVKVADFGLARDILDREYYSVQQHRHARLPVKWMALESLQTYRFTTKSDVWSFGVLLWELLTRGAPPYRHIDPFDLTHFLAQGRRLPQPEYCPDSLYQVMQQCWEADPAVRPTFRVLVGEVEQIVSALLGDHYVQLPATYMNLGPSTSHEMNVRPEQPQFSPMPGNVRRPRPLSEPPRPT

Compound	GI50 (THP−1)	IC50 (FMS)	IC50 (RON)	IC50 (KIT)	IC50 (FGR)	GI50 (MV4−11)	IC50 (FLT3)	GI50 (Kasumi−1)
Cc1cc(Nc2cc(NCCNC(=O)[C@H](C)N(C)C(=O)/C=C/CN(C)C)nc(Nc3ccc(CC#N)cc3)n2)n[nH]1 [Compound 1]	≥ 1000 nM	< 10 nM	100 to 1000 nM	< 10 nM	10 to 100 nM	< 10 nM	< 10 nM	100 to 1000 nM
Cc1cc(Nc2cc(NCCNC(=O)[C@@H]3CCCN3C(=O)/C=C/CN(C)C)nc(Nc3ccc(CC#N)cc3)n2)n[nH]1 [Compound 3]	≥ 1000 nM			< 10 nM		10 to 100 nM	< 10 nM	≥ 1000 nM
C=CC(=O)N(C)[C@@H](C)C(=O)NCCNc1cc(Nc2cc(C3CCC3)[nH]n2)nc(Nc2ccc(CC#N)cc2)n1 [Compound 4, (2S)—N-[2-[[2-[4-(cyanomethyl)anilino]-6-[(5-cyclobutyl-1H-pyrazol-3-yl)amino]pyrimidin-4-yl]amino]ethyl]-2-[methyl(prop-2-enoyl)amino]propanamide]	100 to 1000 nM			10 to 100 nM		< 10 nM	< 10 nM	100 to 1000 nM
CC#CC(=O)N(C)[C@@H](C)C(=O)NCCNc1cc(Nc2cc(C3CCC3)[nH]n2)nc(Nc2ccc(CC#N)cc2)n1 [Compound 5, N-[(1S)-2-[2-[[2-[4-(cyanomethyl)anilino]-6-[(5-cyclobutyl-1H-pyrazol-3-yl)amino]pyrimidin-4-yl]amino]ethylamino]-1-methyl-2-oxo-ethyl]-N-methyl-but-2-ynamide]	≥ 1000 nM			10 to 100 nM		< 10 nM	< 10 nM	≥ 1000 nM
C=CC(=O)N(C)[C@@H](C)C(=O)NCCNc1cc(Nc2ncc(-c3ccccc3)s2)nc(C)n1 [Compound 9, (2S)—N-[2-[[2-methyl-6-[(5-phenylthiazol-2-yl)amino]pyrimidin-4-yl]amino]ethyl]-2-[methyl(prop-2-enoyl)amino]propanamide]	≥ 1000 nM			< 10 nM		< 10 nM	< 10 nM	< 10 nM
CCC(=O)N(C)[C@@H](C)C(=O)NCCNc1cc(Nc2ncc(-c3ccccc3)s2)nc(C)n1 [Compound 10, (2S)—N-[2-[[2-methyl-6-[(5-phenylthiazol-2-yl)amino]pyrimidin-4-yl]amino]ethyl]-2-[methyl(propanoyl)amino]propanamide]	≥ 1000 nM			10 to 100 nM		< 10 nM	10 to 100 nM	10 to 100 nM

More lines, main results first:

GI50 (THP−1)	IC50 (FMS)	IC50 (RON)	IC50 (KIT)	IC50 (FGR)	GI50 (MV4−11)	IC50 (FLT3)	Compound	GI50 (Kasumi−1)
≥ 1000 nM			< 10 nM		< 10 nM	< 10 nM	C=CC(=O)N(C)[C@@H](C)C(=O)NCCOc1cc(C)nc(Nc2ncc(-c3ccccc3)s2)c1 [Compound 12, (2S)—N-[2-[[2-methyl-6-[(5-phenylthiazol-2-yl)amino]-4-pyridyl]oxy]ethyl]-2-[methyl(prop-2-enoyl)amino]propanamide]	< 10 nM
≥ 1000 nM			< 10 nM		< 10 nM	< 10 nM	C=CC(=O)N(C)[C@@H](C)C(=O)NCCOc1cc(Nc2ncc(-c3ccccc3)s2)nc(C)n1 [Compound 13, (2S)—N-[2-[2-methyl-6-[(5-phenylthiazol-2-yl)amino]pyrimidin-4-yl]oxyethyl]-2-[methyl(prop-2-enoyl)amino]propanamide]	< 10 nM
≥ 1000 nM			< 10 nM		< 10 nM	< 10 nM	C=CC(=O)N(C)[C@@H](C)C(=O)NCCNc1cc(Nc2ncc(-c3ccncc3)s2)nc(C)n1 [Compound 17, (2S)-2-[methyl(prop-2-enoyl)amino]-N-[2-[[2-methyl-6-[[5-(4-pyridyl)thiazol-2-yl]amino]pyrimidin-4-yl]amino]ethyl]propanamide]	< 10 nM
≥ 1000 nM			< 10 nM		< 10 nM	< 10 nM	CC#CC(=O)N(C)[C@@H](C)C(=O)NCCNc1cc(Nc2ncc(-c3ccncc3)s2)nc(C)n1 [Compound 18, N-methyl-N-[(1S)-1-methyl-2-[2-[[2-methyl-6-[[5-(4-pyridyl)thiazol-2-yl]amino]pyrimidin-4-yl]amino]ethylamino]-2-oxo-ethyl]but-2-ynamide]	< 10 nM
≥ 1000 nM	< 10 nM	100 to 1000 nM	< 10 nM	100 to 1000 nM	< 10 nM	< 10 nM	Cc1c(C(=O)NCCNC(=O)[C@H](C)N(C)C(=O)/C=C/CN(C)C)c[nH]c1/C=C1\C(=O)Nc2ccc(F)cc21 [Compound 26, N-(2-((S)-2-((E)-4-(dimethylamino)-N-methylbut-2-enamido)propanamido)ethyl)-5-((Z)-(5-fluoro-2-oxoindolin-3-ylidene)methyl)-4-methyl-1H-pyrrole-3-carboxamide]	
